This is an account of results in patent US7259146B2, “Neuroprotective peptides” (Ortho-McNeil Pharmaceutical, Inc., priority 2000, dated 2007).

Series [1] has as its system rat cerebral cortical neurons. The series is described as follows: Glutamate toxicity assay in primary cortical cultures. The series is classed as cell-based. From the text:
Dissociated hippocampal and cortical cell cultures were established from embryonic day 18 rat fetuses as previously described (Mattson et al., 1994). Briefly, fetuses were removed via cesarean section from pregnant moms (Sprague-Dawley) anesthetized with halothane according to the AVMA Panel on Euthanasia. Pups were decapitated and the brains were removed and placed in HEPES-buffered Hank's Balanced Salt solution (HBSS; Gibco). The hippocampi and cortices were dissected out and pooled according to tissue-type. Tissue was trypsinized for 15 min (1 mg/ml trypsin-HBSS; Worthington), rinsed with fresh HBSS, incubated in trypsin inhibitor (1 mg/ml; Sigma) for 5 min, rinsed again with fresh HBSS and then triturated in 1 ml fresh HBSS with a fire-polished glass pipette. Dissociated cells were seeded at 30,000 cells/well onto poly-D-lysine coated 96-well plates (Collaborative BioScience). Each well contained 100 μl of Eagle's Minimal Essential Media (MEM; Gibco) supplemented with 26 mM NaHCO3 (Sigma), 56 mM glucose (Sigma), 15 mM KCl (Sigma), 1 mM sodium pyruvate (Sigma), 1.1 mM L-glutamine (Sigma), 10% (v/v) heat-inactivated fetal bovine serum (Hyclone), and 0.001% gentamicin sulfate (Sigma) (pH 7.4). Cells were allowed to attach for 24 h in a humidified 37° C. 5% CO2 incubator before experimental treatment. The culture media was aspirated and exchanged with fresh media every three days.
Cortical cells were seeded at 200,000 cells/dish onto polyethylenimine-coated 35 mm culture dishes. Each dish contained 1.5 ml MEM supplemented as described above. On the seventh day in culture, four fields per pre-marked dish were visualized with a Nikon Diaphot inverted microscope (10×magnification) and photographed prior to experimental treatment. […] Cell survival was measured by counting viable cells in each field pre- and post-experimental treatment. […] Data were expressed as percent of control (vehicle; mean±SD).

Series [2] can be described thus: Plasma determinations (EPO ELISA) in ischemia studies. The series is classed as in vivo, rat. From the text:
Plasma Determinations: Blood samples were collected from each rat via the orbital sinus at the time of sacrifice. Plasma was separated out, frozen and analyzed by EPO ELISA for determination of plasma concentration (U/ml).
A general note: In an ELISA, binding on a coated surface is turned into a signal by an enzyme label.

“Also recorded” adds a separate entry of the source.

Consider “EPO: purified, recombinant human EPO (rhEPO), formulated and distributed under the trademarks EPREX, ERYPO or PROCRIT”, for which the “concentration of greatest neuroprotective effect” value in series [1] (cell survival greater than or equal to vehicle (no glutamate) treated cultures) was “greatest effects observed at pM concentrations”. In series [1] (pretreatment 24 h prior to 100 μM glutamate), the “neuronal survival / protection against glutamate toxicity (in words)” value is given as “significant increase in neuronal survival; also recorded: protects rat cerebral cortical neurons against glutamate toxicity”. For the same substance, the “cell survival, maximal increase over parallel cultures treated with glutamate alone” value in series [1] (pretreatment 24 h prior to 100 μM glutamate, counted 24 h post-glutamate) is given as “approximately 200%”. Also, the “plasma concentrations (terminal)” value is on record as “correlated with the protective effect” in series [2] (Study I, continuous infusion) and “low” in series [2] (Study II, single iv bolus 1000, 2500 or 5000 U/kg).
